The supplement of paper PMC11451515

Test system: NOMO1
Assay: cell viability relative to DMSO control; higher = less cytotoxic
Settings: 48 h
Outline: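 NOMO1 or SEM cells were plated at 500 cells/well and P12-Ichikawa cells at 1000 cells/well in 1536-well plates (5 μl), after each leukemia line had been adapted for at least four passages in each medium. Pin dosing delivered library compounds in DMSO at 11 threefold concentrations, 47 μM to 0.79 nM. CellTiter-Glo One luminescence was read after 48 h at 37°C. Viability is reported as a per-plate percentage of DMSO wells, with cell-free wells as background.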

[1] = HPLM + 10% dialyzed FBS, 0.000781 µM
[2] = HPLM + 10% dialyzed FBS, 0.00234 µM
[3] = HPLM + 10% dialyzed FBS, 0.00702 µM
[4] = HPLM + 10% dialyzed FBS, 0.0211 µM
[5] = HPLM + 10% dialyzed FBS, 0.0632 µM
[6] = HPLM + 10% dialyzed FBS, 0.19 µM
[7] = HPLM + 10% dialyzed FBS, 0.569 µM
[8] = HPLM + 10% dialyzed FBS, 1.71 µM
[9] = HPLM + 10% dialyzed FBS, 5.12 µM
[10] = HPLM + 10% dialyzed FBS, 15.4 µM
[11] = HPLM + 10% dialyzed FBS, 46.1 µM
[12] = RPMI 5 mM glucose + 10% FBS, 0.000781 µM
[13] = RPMI 5 mM glucose + 10% FBS, 0.00234 µM
[14] = RPMI 5 mM glucose + 10% FBS, 0.00702 µM
[15] = RPMI 5 mM glucose + 10% FBS, 0.0211 µM
[16] = RPMI 5 mM glucose + 10% FBS, 0.0632 µM
[17] = RPMI 5 mM glucose + 10% FBS, 0.19 µM
[18] = RPMI 5 mM glucose + 10% FBS, 0.569 µM
[19] = RPMI 5 mM glucose + 10% FBS, 1.71 µM
[20] = RPMI 5 mM glucose + 10% FBS, 5.12 µM
[21] = RPMI 5 mM glucose + 10% FBS, 15.4 µM
[22] = RPMI 5 mM glucose + 10% FBS, 46.1 µM
[23] = RPMI 5 mM glucose + 10% dialyzed FBS, 0.000781 µM
[24] = RPMI 5 mM glucose + 10% dialyzed FBS, 0.00234 µM
[25] = RPMI 5 mM glucose + 10% dialyzed FBS, 0.00702 µM
[26] = RPMI 5 mM glucose + 10% dialyzed FBS, 0.0211 µM
[27] = RPMI 5 mM glucose + 10% dialyzed FBS, 0.0632 µM
[28] = RPMI 5 mM glucose + 10% dialyzed FBS, 0.19 µM
[29] = RPMI 5 mM glucose + 10% dialyzed FBS, 0.569 µM
[30] = RPMI 5 mM glucose + 10% dialyzed FBS, 1.71 µM
[31] = RPMI 5 mM glucose + 10% dialyzed FBS, 5.12 µM
[32] = RPMI 5 mM glucose + 10% dialyzed FBS, 15.4 µM
[33] = RPMI 5 mM glucose + 10% dialyzed FBS, 46.1 µM

SMILES | cell viability [1] [%] | cell viability [2] [%] | cell viability [3] [%] | cell viability [4] [%] | cell viability [5] [%] | cell viability [6] [%] | cell viability [7] [%] | cell viability [8] [%] | cell viability [9] [%] | cell viability [10] [%] | cell viability [11] [%] | cell viability [12] [%] | cell viability [13] [%] | cell viability [14] [%] | cell viability [15] [%] | cell viability [16] [%] | cell viability [17] [%] | cell viability [18] [%] | cell viability [19] [%] | cell viability [20] [%] | cell viability [21] [%] | cell viability [22] [%] | cell viability [23] [%] | cell viability [24] [%] | cell viability [25] [%] | cell viability [26] [%] | cell viability [27] [%] | cell viability [28] [%] | cell viability [29] [%] | cell viability [30] [%] | cell viability [31] [%] | cell viability [32] [%] | cell viability [33] [%]
CN(C)c1ccc(O)c2c1C[C@H]1C[C@H]3[C@H](N(C)C)C(O)=C(C(N)=O)C(=O)[C@@]3(O)C(O)=C1C2=O | 103 | 105 | 105 | 118 | 117 | 125 | 99.8 | 111 | 101 | 100 | 113 | 103 | 98 | 109 | 98.1 | 114 | 122 | 107 | 109 | 101 | 98.5 | 107 | 96 | 93.6 | 101 | 88.7 | 95.3 | 96 | 92.8 | 102 | 97.3 | 98.9 | 113
CC(C)(C)c1cc(NC(=O)Nc2ccc(-c3cn4c(n3)sc3cc(OCCN5CCOCC5)ccc34)cc2)no1 | 92.8 | 93.9 | 90.5 | 104 | 101 | 102 | 87.3 | 99.7 | 110 | 123 | 96.5 | 76.8 | 76 | 85.1 | 88.3 | 82 | 79.2 | 81.4 | 87 | 81.4 | 81.8 | 88.5 | 85.1 | 94.8 | 101 | 82.3 | 90.5 | 90.8 | 90.8 | 93.1 | 92.9 | 92.1 | 89.7
CCC1(C)CC(=O)NC1=O (stereo unspecified) | 114 | 116 | 105 | 118 | 102 | 111 | 104 | 93.9 | 105 | 86.7 | 84.2 | 85.5 | 89.2 | 84.7 | 87.5 | 89.2 | 92.2 | 99.2 | 81.7 | 90.3 | 94.5 | 77.4 | 104 | 98.1 | 96.7 | 94.3 | 81.3 | 101 | 98.4 | 92.7 | 96.6 | 88.2 | 87.6
C[C@](O)(COc1ccc(C#N)cc1)C(=O)Nc1ccc(C#N)c(C(F)(F)F)c1 | 83.2 | 81.5 | 81.2 | 95.6 | 90.1 | 99.1 | 90.4 | 96 | 88.6 | 97 | 71.2 | 72.8 | 93.8 | 94.4 | 85.4 | 96.2 | 95.3 | 103 | 96.2 | 88.8 | 92.8 | 75.9 | 75.5 | 88.7 | 86.8 | 98.3 | 92.5 | 97.2 | 95.2 | 102 | 85.2 | 92.4 | 78.8
O=NN(CCCl)C(=O)NCCCl | 89.1 | 107 | 99.1 | 116 | 128 | 113 | 127 | 101 | 106 | 127 | 109 | 84.4 | 99.3 | 102 | 104 | 118 | 116 | 107 | 120 | 110 | 110 | 101 | 91.4 | 94.5 | 109 | 112 | 101 | 98.9 | 108 | 109 | 102 | 109 | 97.9
Cl.Cl.Cl.O[C@@H](COc1cccc2ncccc12)CN1CCN([C@@H]2c3ccccc3[C@@H]3[C@H](c4ccccc42)C3(F)F)CC1 | 79.7 | 84.8 | 75.8 | 89.4 | 94.7 | 102 | 93.8 | 76.5 | 94.6 | 70.8 | 68.6 | 79.7 | 78.4 | 75.8 | 91.7 | 97 | 84.5 | 89.8 | 87.9 | 81 | 76.2 | 74.2 | 98.6 | 83.8 | 87.2 | 79.5 | 81 | 92.4 | 73.5 | 84.2 | 86.2 | 78.2 | 87
CC(C)OC(=O)OCOP(=O)(CO[C@H](C)Cn1cnc2c(N)ncnc21)OCOC(=O)OC(C)C.O=C(O)C=CC(=O)O | 98.7 | 120 | 120 | 105 | 133 | 129 | 126 | 123 | 104 | 89.6 | 53.1 | 95.8 | 121 | 125 | 116 | 115 | 128 | 109 | 118 | 115 | 103 | 38.6 | 117 | 117 | 112 | 117 | 124 | 122 | 128 | 124 | 114 | 102 | 15.1
